Marks after values point to notes of the source that are not given here.
Assays:
FKBP = FKBP (Homo sapiens, UniProt P62942); assay: Rotamase inhibition assay (chymotrypsin-coupled PPIase assay); type: biochemical; details: 15 nM FKBP, 30 μM Suc-Ala-Leu-Pro-Phe-pNA, 15° C.
Experimental: Inhibition of FKBP enzyme activity was determined in the PPIase assay described in S. T. Park et al., J. Biol. Chem., 267, pp. 3316–24 (1992), the disclosure of which is herein incorporated by reference. This is a chymotrypsin-coupled assay in which FKBP catalyzes the cis to trans isomerization of the Leu-Pro bond in the peptide substrate Suc-Ala-Leu-Pro-Phe-pNA. The trans form, but not the cis form, is cleavable by chymotrypsin. The release Phe-pNA was monitored by absorbance at 400 nm. Chymotrypsyn cleavage is very rapid and therefore cis-to-trans isomerization is rate-limiting.
Each reaction mix consisted of 0.1 M Tris buffer, pH 7.8, 15 nM FKBP, 30 μM substrate and 0.5 nM to 10 μM of compound to be tested diluted in Me2SO. The mixture was incubated at 15° C. for 5 minutes and then reaction was initiated by addition of chymotrypsin (100 μg/ml final concentration) and followed spectrophotometrically for 5 minutes. Total reaction volume was 1 ml.

[1] = test system: pheochromocytoma PC12 cells; assay: Neurite outgrowth quantitation in PC12 cell system; type: cell-based, rat; details: for Neurite outgrowth, visual scale of 0 to 4: 1–5 ng/ml NGF, 72 hours
Experimental: In order to directly determine the neurotrophic activity of compounds described in this invention, the neurite outgrowth assay was carried out with pheochromocytoma PC12 cells as described by Lyons et al. (1994).
PC12 cells were maintained at 37° C. and 5% CO2 in Dulbecco's modified Eagle's medium (DMEM) supplemented with 10% heat-inactivated horse serum, 5% heat-inactivated fetal bovine serum (FBS), and 1% glutamate.
The cells were then plated at […] in 96 well plates coated with […] rat tail collagen and allowed to attach overnight. The medium was then replaced with DMEM, 2% heat-inactivated horse serum, 1% glutamate, 1–5 ng/ml of NGF (Sigma) and varying concentrations of the compounds of this invention (0.01 nM–10000 nM). The background control culture was administered with […] of NGF alone without compound. Positive control cultures were administered with high concentration of NGF (50 ng/ml). The cells were then incubated at 37° C. at 5% CO2 for 72 hours, fixed with 3% formaldehyde and nerve outgrowth was determined visually on a scale of 0 to 4.

HL60/Vinc cells = assay: MDR sensitization (reversal) assay, doxorubicin, XTT viability; type: cell-based, human; details: IC50 doxorubicin alone / IC50 doxorubicin plus compound
Experimental: We carried out multidrug resistance reversal (MDR) assays using L1210vMDRC.06 or HL60/Vinc cell lines. L1210vMDRC.06 are L1210 mouse leukemia cells transduced with the pHaMDR1/A retrovirus carrying a MDR1 cDNA, as described by Pastan et al., Proc. Natl. Acad. Sci. USA, 85, pp. 4486–4490 (1988). The L1210vMDRC.06 multidrug resistant line is a cell line that has been drug-selected by culturing transfected cells in 0.06 μg/ml colchicine. The HL60/Vinc human promyleocytic leukemia cell line is a multidrug resistant cell line derived from HL60 drug-sensitive parental cells by selection in increasing concentrations of vincristine.
Assays using HL60/Vinc cells were performed by plating cells in 96 well microtiter plates at a concentration of 4×10^4 cells/well. The cells were then exposed to various concentrations of doxorubicin (9 nM to 6.7 μM) in the presence or absence of various compounds of this invention at various concentrations (0.5, 1.0, 2.5, 5.0 or 10 μM) as described in U. Germann et al., Anti-Cancer Drugs, 8, pp. 141–155 (1997). After culturing the cells for 3 days, their viability was quantitated using the XTT dye method to assess mitochondrial function (Roehm et al., supra). Results were expressed as a ratio of the IC50 for doxorubicin alone to the IC50 for doxorubicin plus compound. In all assays the intrinsic antiproliferative or cytotoxicity activity of the MDR inhibitors was also determined for HL60/Vinc cells.

FKBP, sequence (P62942 whole entry): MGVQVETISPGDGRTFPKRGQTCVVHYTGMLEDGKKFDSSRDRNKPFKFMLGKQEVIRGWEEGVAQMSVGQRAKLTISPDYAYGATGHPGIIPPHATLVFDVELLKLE

Row | SMILES | Ki (FKBP) | Neurite outgrowth, visual scale of 0 to 4 ([1]; compound 10 nM) | Neurite outgrowth, visual scale of 0 to 4 ([1]; compound 100 nM) | Neurite outgrowth, visual scale of 0 to 4 ([1]; compound 1000 nM) | MDR Ratio (HL60/Vinc cells; compound 2.5 μM) | Neurite outgrowth, visual scale of 0 to 4 ([1]; compound 0.01 nM) | Neurite outgrowth, visual scale of 0 to 4 ([1]; compound 0.1 nM) | Neurite outgrowth, visual scale of 0 to 4 ([1]; compound 1 nM) | Neurite outgrowth, visual scale of 0 to 4 ([1]; compound 10000 nM) | Neurite outgrowth over background control cultures (in words) ([1]; PC12 assay) | MDR Ratio (HL60/Vinc cells; compound 10 μM)
1 | O=C(OCc1ccccc1)C1CCCCN1 (stereo not drawn) [Compound 101] | > 50 µM | – | – | – | – | – | – | – | – | – | –
2 | CC(C)CN1CCCCC1C(=O)OC(CCCc1ccncc1)CCCc1cccnc1 (stereo not drawn) [Compound 112] | > 50 µM | 3* | 4* | 3* | 2.4 | – | – | – | – | – | –
3 | CNC(Cc1ccccc1)C(=O)N(C)CCc1ccccn1 (stereo not drawn) [Compound 107] | > 25 µM | – | 3* | 0* | 0.9 | – | – | – | – | – | –
4 | O=C(OC(CCCc1cccnc1)CCCc1cccnc1)C1CCCCN1 (stereo not drawn) [Compound 102] | – | 4** | 2** | 3** | 1.2 | 3* | 3* | 4* | 4* | – | –
5 | CN(C(=O)[C@H](Cc1ccccc1)N(C)S(=O)(=O)Cc1ccccc1)C(CCCc1cccnc1)CCCc1cccnc1 [Compound 12] | – | 3* | 3* | 4* | 22.6 | – | – | – | – | – | –
6 | CN(C(=O)[C@H](Cc1ccccc1)N(C)S(=O)(=O)c1ccccc1[N+](=O)[O-])C(CCCc1cccnc1)CCCc1cccnc1 [Compound 8] | > 50 µM | 4* | 2* | 3* | 28.5 | – | – | – | – | – | –
7 | CN(C(=O)[C@H](Cc1ccccc1)N(C)S(=O)(=O)c1ccc(N)cc1)C(CCCc1cccnc1)CCCc1cccnc1 [Compound 4, (S)-(N-methyl)-2-(methyl-(4-amino-benzenesulfanilamido))-3-phenyl-N-(4-(pyridin-3-yl)-1-(3-(pyridin-3-yl)propyl)butyl) propionamide] | > 25 µM | 3* | 3* | 4* | 6.2 | – | – | – | – | – | –
8 | CN(C(=O)[C@H](Cc1ccccc1)N(C)S(=O)(=O)c1ccc(F)cc1)C(CCCc1cccnc1)CCCc1cccnc1 [Compound 14] | – | 3* | 2* | 4* | 19.9 | – | – | – | – | – | –
9 | O=C(NCc1cccnc1)C1CCCCN1 (stereo not drawn) [Compound 103] | > 50 µM | 0 | 0 | 0 | 0.7 | – | – | – | – | Negative results | –
10 | CN(C(=O)[C@H](Cc1ccccc1)N(C)S(=O)(=O)/C=C/c1ccccc1)C(CCCc1cccnc1)CCCc1cccnc1 [Compound 13] | – | 3* | 3* | 4* | 19.3 | – | – | – | – | – | –
11 | CN(C)c1cccc2c(S(=O)(=O)N(C)[C@@H](Cc3ccccc3)C(=O)N(C)C(CCCc3cccnc3)CCCc3cccnc3)cccc12 [Compound 7] | – | 2* | 3* | 3* | – | – | – | – | – | – | 21.9
12 | CN(C)c1ccc(/N=N\c2ccc(S(=O)(=O)N(C)[C@@H](Cc3ccccc3)C(=O)N(C)C(CCCc3cccnc3)CCCc3cccnc3)cc2)cc1 [Compound 6] | – | 4* | 2* | 3* | – | – | – | – | – | – | 17.7
